Earlier results, collected in PMC4939794 (Biochemistry, 2015).

green fluorescent protein [GFP]
CRO maturation half-life (depending on the variant and the conditions): 19 to 83 min | folding rates (multiphasic, three to five folding rates): 10 to 0.01 s^−1 | unfolding half-life (water at neutral pH, standard temperature and pressure, estimated): greater than 1 month
